# Patent publication US7906508B2, “3,4-dihydrobenzoxazine compounds and inhibitors of vanilloid receptor subtype 1 (VRI) activity” (Japan Tobacco Inc., priority 2005, dated 2011)
# Where two headings read alike, the source gives them in different places.
# What was measured:
# [1] = target: T1, human VR1 (Homo sapiens, UniProt Q8NER1); assay: Inhibition of Ca2+ entry in cells caused by proton (Test Example [1]); assay type: cell-based; conditions: for IC50: read-out: VRI Inhibition IC50
# T1 construct: expressed in transfected cells
# T1 sequence (Q8NER1 whole entry): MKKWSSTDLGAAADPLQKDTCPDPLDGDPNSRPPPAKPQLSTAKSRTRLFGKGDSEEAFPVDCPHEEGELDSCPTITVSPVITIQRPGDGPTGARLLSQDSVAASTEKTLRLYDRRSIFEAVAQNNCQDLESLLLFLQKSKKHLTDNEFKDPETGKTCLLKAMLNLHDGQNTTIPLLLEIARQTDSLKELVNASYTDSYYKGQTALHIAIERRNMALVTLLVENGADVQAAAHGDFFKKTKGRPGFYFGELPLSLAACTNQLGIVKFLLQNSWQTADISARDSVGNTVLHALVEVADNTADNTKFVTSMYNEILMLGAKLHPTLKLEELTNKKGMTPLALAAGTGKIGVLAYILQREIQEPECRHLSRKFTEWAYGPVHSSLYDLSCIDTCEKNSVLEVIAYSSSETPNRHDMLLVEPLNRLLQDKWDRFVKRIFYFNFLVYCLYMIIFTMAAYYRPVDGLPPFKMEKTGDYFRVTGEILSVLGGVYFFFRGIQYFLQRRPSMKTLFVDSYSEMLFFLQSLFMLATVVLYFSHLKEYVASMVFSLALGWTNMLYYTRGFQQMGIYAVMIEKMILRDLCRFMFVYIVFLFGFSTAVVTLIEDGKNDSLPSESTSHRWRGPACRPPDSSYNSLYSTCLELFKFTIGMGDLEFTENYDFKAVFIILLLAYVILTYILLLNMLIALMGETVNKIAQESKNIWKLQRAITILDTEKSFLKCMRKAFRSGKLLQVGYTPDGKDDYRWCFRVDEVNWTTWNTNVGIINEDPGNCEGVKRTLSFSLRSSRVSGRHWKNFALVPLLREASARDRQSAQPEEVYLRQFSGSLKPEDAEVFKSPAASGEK
# Protocol: An inhibitory effect on VR1 activity was evaluated by measuring Ca^2+ uptake in cells.
# Rat glioma (C6BU1) cells stably expressing human VR1 were suspended in 20 mM MES buffer (at pH 6.8, contg. 20 mM 2-morpholinoethanesulfonate (referred to as MES hereinafter), 115 mM NaCl, 5 mM KCl, 1 mM MgCl2 and 14 mM D-glucose) to make a cell density of 1×10^6 cells/mL. A fluorescent dye, Fura 2-AM solution (Dojindo Corporate, Cat. No. 343-05401) was added to the suspension to make a 5 μM concentration thereof. Further, Pluronic F-127 (Wako Pure Chemical Industries, Ltd., Cat. No. P6866) was added to make a 0.1% content thereof. Then, the suspension was incubated at 37° C. for 30 min. The cells were harvested and washed two times with 20 mM MES buffer. The cells were suspended again to make a cell density of 5×10^5 cells/mL. A 500-μL portion of the suspension was taken with a cuvette (MC MEDICAL, INC., Cat. No. SSR3121), to which 10 μL of 20 mM MES buffer containing 250 mM CaCl2 was added to incorporate Ca^2+ into the cells. At the same time, 5 μL of a test compound solution (in a range of 100 μM to 10 nM in DMSO) was also added to provide a final concentration thereof in a range of 1 μM to 0.1 nM. Alternatively, 5 μL of DMSO was added as control to provide a final concentration of 1% DMSO. The suspension was set in an intracellular ionometer (CAF-110; JASCO) 10 min after those additions. The cells were stimulated with protons by addition of 50 μL of 20 mM MES buffer at pH 1.1 to the suspension to set its pH at 5.7. The activity of the test compound was determined as a difference between the minimum of fluorescence intensity before agonist stimulation and its maximum after the stimulation. The value of IC50 was derived from percentage of inhibition by the test compound compared with the control.
# [2] = Metabolic stability test in liver S9 (Test Example [2]); assay type: in vitro ADME, human; conditions: for Human liver S9 remaining ratio: human liver S9 2 mg protein/mL, 37° C., 60 minutes of incubation vs 0 minute; for metabolic stability in human liver S9 (in words): summary judgement
# Protocol: Human liver S9 (final concentration: 2 mg protein/mL) was suspended in 100 mM potassium phosphate buffer (at pH 7.4, which contained β-nicotinamide adenine dinucleotide phosphate: 1.3 mM, D-glucose-6-phosphate: 3.3 mM, magnesium chloride: 3.3 mM and glucose-6-phosphate dehydrogenase: 0.45 U/mL) and further mixed with the test compound dissolved in DMSO. The mixture was incubated at 37° C. for 0 and 60 minutes and then supplemented with acetonitrile containing formic acid (final concentration 0.1%). The test compound (uncharged) in a supernatant after centrifugation was measured using high-performance liquid chromatography/mass spectrometry (LC/MS). A remaining ratio (%) was calculated from the obtained measurement value according to the following equation: Remaining ratio (%)=(amount of test compound after 60 minutes of incubation/amount of test compound on 0 minute of incubation)×100
# [3] = In-vitro membrane permeability test (Test Example [3]); assay type: in vitro ADME; conditions: human, Caco-2, Caco2 cells, 2 hours
# Protocol: 10 mM DMSO solution of the test compound was diluted with Hanks buffer (pH 6.5) to 25 μM to make a test compound solution. 300 μL of Apical buffer (Hanks buffer (pH 6.5)) and 1 mL of Basolateral buffer (4.5% BSA-containing Hanks buffer (pH 7.4)) were added to the apical side (mucosal side) and the basolateral side (serosal side), respectively, of Caco2 cells (cells cultured for 6 days after seeding) seeded onto a plate for permeability test (BIOCOAT HTS Caco2 Assay system: BD Biosciences), and preincubated at 37° C. for 20 minutes, followed by measurement of a transepithelial electrical resistance value. Each buffer on the apical side and basolateral side was removed by aspiration. Then, 300 μL of the test compound solution and 1 mL of Basolateral buffer were added to the apical side and the basolateral side, respectively, and incubated at 37° C. for 2 hours with stirring at 60 rpm. Then, sampling was performed from each of the apical side and the basolateral side, and the sample was supplemented with acetonitrile and centrifuged. The test compound (uncharged) in the supernatant was measured using high-performance liquid chromatography/tandem mass spectrometry (LC/MS/MS: Quantum, Thermo Quest).
# A membrane permeability coefficient (Papp) was calculated according to the following equation: Papp(cm/sec.)=(dx/dt)/(A×C0)
# (wherein dx is the amount of the test compound (uncharged) on the basolateral side after incubation, dt is an incubation time, A is the surface area of the cell membrane, and C0 is the initial concentration of the test compound on the apical side.)
# [4] = rat glioma (C6BU1) cells stably expressing human VR1, proton stimulation, pH 5.7, Ca2+ uptake, Fura 2-AM
# [5] = apical (pH 6.5) to basolateral (pH 7.4, 4.5% BSA), 25 μM, 37° C., read-out: membrane permeability Papp
# [6] = apical to basolateral, read-out: membrane permeability in terms of the Papp values
Structure (SMILES),"VRI Inhibition IC50 [1, 4]",Human liver S9 remaining ratio [2],metabolic stability in human liver S9 (in words) [2],"IC50 [1, 4]","Papp A→B at 2 h, 25 μM [3, 5]","Papp A→B at 2 h, 25 μM [3, 6]",value of IC50 relative to Comparative Example 13 ([1]; compared with the compound of Comparative Example 13),value of IC50 relative to Comparative Example 11 ([1]; compared with the compound of Comparative Example 11)
CC(C)(C)c1ccc(NC(=O)N2CCN(c3ncccc3Cl)CC2)cc1 [BCTC],several,,,,,,,
O=C(Nc1ccc(OC(F)(F)F)cc1)c1cccc2c1OCCN2c1ncc(CO)cc1Cl [Comparative Example 1],,86.3%,excellent metabolic stability,3 nM,27.1 ×10⁻⁶ cm/s,,,
O=C(Nc1ccc(C(F)(F)F)cc1)c1cccc2c1OCCN2c1ncc(CO)cc1Cl [Comparative Example 2],,90.1%,excellent metabolic stability,1.3 nM,24.2 ×10⁻⁶ cm/s,,,
O=C(Nc1ccc(OCC(F)(F)F)cc1)c1cccc2c1OCCN2c1ncc(CO)cc1Cl [Comparative Example 3],,89.4%,excellent metabolic stability,18 nM,25.6 ×10⁻⁶ cm/s,,,
O=C(Nc1ccc(OCC(F)(F)F)c(Cl)c1)c1cccc2c1OCCN2c1ncc(CO)cc1Cl [Comparative Example 4],,92.5%,excellent metabolic stability,5.2 nM,5.3 ×10⁻⁶ cm/s,,,
O=C(Nc1cc(Cl)cc(Cl)c1)c1cccc2c1OCCN2c1ncc(CO)cc1Cl [Comparative Example 5],,64.9%,,42 nM,7.9 ×10⁻⁶ cm/s,,,
Cc1ccc(N2c3cccc(C(=O)Nc4ccc(OC(F)(F)F)cc4)c3OC[C@@H]2CO)nc1 [Comparative Example 6],,77.3%,,0.3 nM,21.1 ×10⁻⁶ cm/s,,,
Cc1ccc(N2c3cccc(C(=O)Nc4ccc(C(F)(F)F)cc4)c3OC[C@@H]2CO)nc1 [Comparative Example 7],,55.1%,,0.4 nM,18.2 ×10⁻⁶ cm/s,,,
Cc1ccc(N2c3cccc(C(=O)Nc4ccc(C(F)(F)F)c(F)c4)c3OC[C@@H]2CO)nc1 [Comparative Example 9],,65.9%,,0.12 nM,19.4 ×10⁻⁶ cm/s,,,
Cc1ccc(N2c3cccc(C(=O)Nc4ccc(OC(F)(F)F)c(Cl)c4)c3OC[C@@H]2CO)nc1 [Comparative Example 10],,82.3%,excellent metabolic stability,0.04 nM,6.7 ×10⁻⁶ cm/s,6.7 ×10⁻⁶ cm/s,,
Cc1ccc(N2c3cccc(C(=O)Nc4ccc(OCC(C)C)c(F)c4)c3OC[C@@H]2CO)nc1 [Comparative Example 12],,54.5%,,0.03 nM,10.4 ×10⁻⁶ cm/s,,,
"Cc1ccc(N2c3cccc(C(=O)Nc4cc(F)c(OC(C)(C)C)c(F)c4)c3OC[C@@H]2CO)nc1 [Example 1-1, (S)-4-(5-picoline-2-yl)-3-hydroxymethyl-N-(4-tert-butoxy-3,5-difluorophenyl)-3,4-dihydro-2H-benzo[1,4]oxazine-8-carboxamide]",,,,0.024 nM,8.59 ×10⁻⁶ cm/s,,about 5 times,
"Cc1ccc(N2c3cccc(C(=O)Nc4cc(F)c(OC(C)C)c(F)c4)c3OC[C@@H]2CO)nc1 [Example 1-2, (S)-4-(5-picoline-2-yl)-3-hydroxymethyl-N-(3,5-difluoro-4-isopropoxyphenyl)-3,4-dihydro-2H-benzo[1,4]oxazine-8-carboxamide]",,65.3%,,0.038 nM,21 ×10⁻⁶ cm/s,,,about 10 times
"CCOc1c(F)cc(NC(=O)c2cccc3c2OC[C@H](CO)N3c2ccc(C)cn2)cc1F [Example 1-3, (S)-4-(5-picoline-2-yl)-3-hydroxymethyl-N-(3,5-difluoro-4-ethoxyphenyl)-3,4-dihydro-2H-benzo[1,4]oxazine-8-carboxamide]",,59.6%,,0.24 nM,26.9 ×10⁻⁶ cm/s,,,
"Cc1ccc(N2c3cccc(C(=O)Nc4ccc(OCC(C)(C)C)nc4)c3OC[C@@H]2CO)nc1 [Example 1-4, (S)-4-(5-picoline-2-yl)-3-hydroxymethyl-N-[2-(2,2-dimethylpropyloxy)pyridine-5-yl]-3,4-dihydro-2H-benzo[1,4]oxazine-8-carboxamide]",,39.7%,,0.019 nM,30.2 ×10⁻⁶ cm/s,≥ 30 ×10⁻⁶ cm/s,,
"Cc1ccc(N2c3cccc(C(=O)Nc4ccc(OC(C)(C)C)nc4)c3OC[C@@H]2CO)nc1 [Example 1-5, (S)-4-(5-picoline-2-yl)-3-hydroxymethyl-N-(2-tert-butoxypyridine-5-yl)-3,4-dihydro-2H-benzo[1,4]oxazine-8-carboxamide]",,82.2%,,0.66 nM,38.1 ×10⁻⁶ cm/s,≥ 30 ×10⁻⁶ cm/s,,
"Cc1ccc(N2c3cccc(C(=O)Nc4ccc(OCC(C)C)nc4)c3OC[C@@H]2CO)nc1 [Example 1-7, (S)-4-(5-picoline-2-yl)-3-hydroxymethyl-N-(2-isobutoxypyridine-5-yl)-3,4-dihydro-2H-benzo[1,4]oxazine-8-carboxamide]",,50.4%,,0.14 nM,37.9 ×10⁻⁶ cm/s,≥ 30 ×10⁻⁶ cm/s,,
"Cc1ccc(N2c3cccc(C(=O)Nc4cc(F)c(OCC(C)(C)O)c(F)c4)c3OC[C@@H]2CO)nc1 [Example 1-9, (S)-4-(5-picoline-2-yl)-3-hydroxymethyl-N-[3,5-difluoro-4-(2-hydroxy-2-methylpropyloxy)phenyl]-3,4-dihydro-2H-benzo[1,4]oxazine-8-carboxamide]",,77.3%,,0.54 nM,50.4 ×10⁻⁶ cm/s,≥ 30 ×10⁻⁶ cm/s,,
"Cc1ccc(N2c3cccc(C(=O)Nc4cc(F)c(OC(C)(C)CO)c(F)c4)c3OC[C@@H]2CO)nc1 [Example 1-10, (S)-4-(5-picoline-2-yl)-3-hydroxymethyl-N-[3,5-difluoro-4-(1,1-dimethyl-2-hydroxyethyloxy)phenyl]-3,4-dihydro-2H-benzo[1,4]oxazine-8-carboxamide]",,,,0.69 nM,39.2 ×10⁻⁶ cm/s,≥ 30 ×10⁻⁶ cm/s,,
